ChEMBL document CHEMBL1137192, “Synthesis and neurotrophic activity of nonimmunosuppressant cyclosporin A derivatives” (Bioorg Med Chem Lett, 2004)
pEC50, pKi: −log10 of the molar value.

Tests used:
T-cell = experiment: Inhibition of T-cell proliferation; assay type: functional; conditions: read-out: ED50 (the source's name)
[1] = target: Peptidyl-prolyl cis-trans isomerase A (Homo sapiens, UniProt P62937); experiment: Inhibition of cyclophilin A rotamase
Chain of Peptidyl-prolyl cis-trans isomerase A (P62937 whole entry): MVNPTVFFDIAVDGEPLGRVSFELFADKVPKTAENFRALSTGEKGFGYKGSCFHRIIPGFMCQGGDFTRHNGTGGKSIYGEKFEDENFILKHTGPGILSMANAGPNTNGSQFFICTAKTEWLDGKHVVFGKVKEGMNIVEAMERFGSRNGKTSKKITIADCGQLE

C=C1NC(=O)[C@H](C)NC(=O)[C@H](CC(C)C)N(C)C(=O)[C@H](C(C)C)NC(=O)[C@H](CC(C)C)N(C)C(=O)CN(C)C(=O)[C@H](CC)NC(=O)[C@H]([C@H](O)[C@H](C)C/C=C/C)N(C)C(=O)[C@H](C(C)C)N(C)C(=O)[C@H](CC(C)C)N(C)C(=O)[C@H](CC(C)C)N(C)C1=O
pEC50 (T-cell): < 5.00

C/C=C/C[C@@H](C)[C@@H](O)[C@H]1C(=O)N[C@@H](CC)C(=O)N(C)CC(=O)N(C)[C@@H](CC)C(=O)N[C@@H](C(C)C)C(=O)N(C)[C@@H](CC(C)C)C(=O)N[C@@H](C)C(=O)N[C@H](C)C(=O)N(C)[C@@H](CC(C)C)C(=O)N(C)[C@@H](CC(C)C)C(=O)N(C)[C@@H](C(C)C)C(=O)N1C
pEC50 (T-cell): < 5.00

CCCC[C@@H](C)[C@@H](O)[C@H]1C(=O)N[C@@H](CC)C(=O)N(C)CC(=O)N(C)[C@@H](CC(C)C)C(=O)N[C@@H](C(C)C)C(=O)N(C)[C@@H](CC(C)C)C(=O)N[C@@H](C)C(=O)N[C@H](C)C(=O)N(C)[C@@H](CC(C)C)C(=O)N(C)[C@@H](CC(C)C)C(=O)N(C)[C@@H](C(C)C)C(=O)N1C
pEC50 (T-cell): 6.89

C/C=C/C[C@@H](C)C(O)[C@H]1C(=O)N[C@@H](CC)C(=O)N(C)CC(=O)N(C)[C@H](CC(C)C)C(=O)N[C@](C)(C(C)O)C(=O)N(C)[C@@H](CC(C)C)C(=O)N[C@@H](C)C(=O)N[C@H](C)C(=O)N(C)[C@H](CC(C)C)C(=O)N(C)[C@@H](CC(C)C)C(=O)N(C)[C@@H](C(C)C)C(=O)N1C (stereo not given in full)
pEC50 (T-cell): < 5.00 | pKi [1]: 7.74
